This series is described as follows: Thermo Scientific Acclaim RSLC 120 C18, 100 × 2.1 mm, 2.2 µm, 30 °C; A: 90% water + 10% methanol + 0.01% formic acid + 5 mM ammonium formate; B: methanol + 0.01% formic acid + 5 mM ammonium formate; gradient (min/%B) 0.1/1 3/39 14/99.9 16/99.9. To be noted: stereoisomer not certain.
As for `CCCCCn1c(C)c(C(=O)c2cccc3ccccc23)c2ccccc21`, the LC retention time was 12.6 min.
Turning to `O=C(O)CCCCC1SCC2NC(=O)NC21` (stereo not drawn), the LC retention time is 4.44 min.
`COC(C)C(O)(C(=O)OCC1=CC[N+]2([O-])CCC(O)C12)C(C)C` (stereo not drawn): the LC retention time came to 3.49 min.
As for `CC(N)Cc1ccc2occc2c1` (stereo not drawn), the LC retention time was 4.79 min.
Consider `OC(CCN1CCCCC1)(c1ccccc1)C1CC2C=CC1C2` (stereo not drawn), for which the LC retention time is 7.63 min.
Regarding `Cc1nc(NS(=O)(=O)c2ccc(N)cc2)oc1C`, the LC retention time is 4.11 min.
Take `Cc1cc2c(s1)Nc1ccccc1N=C2N1CCN(C)CC1`: the LC retention time was determined as 4.99 min.
Turning to `CN1C2CC(OC(=O)C(CO)c3ccccc3)CC1C1OC12` (stereo not drawn), the LC retention time was found to be 3.83 min.
In the case of `CC12CCC(=O)C=C1CCC1C2CCC2(C)C(C(=O)CO)CCC12` (stereo not drawn), the LC retention time is 13.7 min.
In the case of `c1cncc(C2CCCCN2)c1` (stereo not drawn), the LC retention time stood at 2.94 min.
With `CNC1C(C)OC(OC2C(C)OC(OC3C(C)=CCC4CC(CC5(C=CC(C)C(C(C)C)O5)O4)OC(=O)C4C=C(C)C(O)C5OCC(=CC=CC3C)C45O)CC2OC)CC1OC` (stereo not drawn), the LC retention time was 12 min.
With `COc1ccc2c3c1OC1C(=O)CCC4(O)C(C2)N(C)CCC314` (stereo not drawn), the LC retention time worked out at 3.61 min.
Take `CC(C)N1C(=O)c2ccccc2NS1(=O)=O`: the LC retention time worked out at 5.22 min.
Regarding `S=c1[nH]c2ccccc2s1`, the LC retention time was 6.89 min.
Regarding `CC(C)CC(C)Nc1ccc(Nc2ccccc2)cc1` (stereo not drawn), the LC retention time came to 9.92 min.
As for `CCOP(=O)(OCC)Oc1cc(C)nc(C(C)C)n1`, the LC retention time turned out to be 8.65 min.
As for `CSc1nc(NC2CC2)nc(NC(C)(C)C)n1`, the LC retention time was 10.5 min.
The value for `CC(C)c1nc(CN(C)C(=O)NC(C(=O)NC(Cc2ccccc2)CC(O)C(Cc2ccccc2)NC(=O)OCc2cncs2)C(C)C)cs1` (stereo not drawn) was 11.1 min.
For the compound `O=C(c1ccccc1)c1ccc2n1CCC2C(=O)O` (stereo not drawn), the LC retention time came out at 6.94 min.
The value for `CCN(CC)CCOCCOC(=O)C1(c2ccccc2)CCCC1` was 7.87 min; that for `CCCc1nc(C)c2c(=O)[nH]c(-c3cc(S(=O)(=O)N4CCN(CCO)CC4)ccc3OCC)nn12` was 8.05 min; that for `COc1ccc(-c2ccccc2)cc1NNC(=O)OC(C)C` was 9.87 min.
As for `N#CSCSc1nc2ccccc2s1`, the LC retention time came out at 9.25 min.
In the case of `Nc1nc2c(ncn2COCCO)c(=O)[nH]1`, the LC retention time came to 2.34 min.
As for `CON=C(C(=O)OC)c1ccccc1COc1ccccc1C`, the LC retention time turned out to be 10.8 min.
With `CCNC(C)C(O)c1ccc(O)c(O)c1` (stereo not drawn), the LC retention time came out at 1.99 min.
As to `CN(C)C(=O)SCCCCOc1ccccc1`, the LC retention time is 10.7 min.
On to `CC1=C(C(=O)O)N2C(=O)C(NC(=O)C(N)c3ccccc3)C2SC1` (stereo not drawn), for which the LC retention time was 4.08 min.
Take `COc1cc(OC)nc(NC(=O)NS(=O)(=O)N(C)S(C)(=O)=O)n1`: the LC retention time stood at 6.77 min.
The value for `CCOc1ccc(S(=O)(=O)O)c2cccnc12` was 3.56 min; that for `CCCOc1ccc(C(=O)CCN2CCCCC2)cc1` was 6.24 min; that for `CNC(=O)Oc1cccc(N=CN(C)C)c1` was 3.14 min.
The value for `Cc1ccc(N=CN(C)C=Nc2ccc(C)cc2C)c(C)c1` was 13.3 min; that for `C=C(c1ccc(C(=O)O)cc1)c1cc2c(cc1C)C(C)(C)CCC2(C)C` was 14.1 min; that for `CN(C)CCCN1c2ccccc2Sc2cccnc21` was 7.21 min.
The value for `O=C1NCC(=O)N2C1Cc1c([nH]c3ccccc13)C2c1ccc2c(c1)OCO2` (stereo not drawn) was 7.99 min.
For the compound `COC1C(OC(N)=O)C(O)C(Oc2ccc3c(O)c(NC(=O)c4ccc(O)c(CC=C(C)C)c4)c(=O)oc3c2C)OC1(C)C` (stereo not drawn), the LC retention time was 11.2 min.
Take `COc1cc(OC)nc(NC(=O)NS(=O)(=O)c2ncccc2C(=O)N(C)C)n1`: the LC retention time turned out to be 6.62 min.
On to `CCCCOC(=O)c1ccccc1C(=O)OCc1ccccc1`, for which the LC retention time worked out at 12.4 min.
Consider `N#CC1CCCN1C(=O)CNC12CC3CC(CC(O)(C3)C1)C2` (stereo not drawn), for which the LC retention time came out at 3.26 min.
Regarding `COP(=S)(OC)Oc1ccc(C#N)cc1`, the LC retention time came to 8.27 min.
The value for `CC(CCc1ccccc1)NCC(O)c1ccc(O)c(C(N)=O)c1` (stereo not drawn) was 5.74 min; that for `COc1ccc(CC2c3cc(OC)c(OC)cc3CCN2C)cc1OC` (stereo not drawn) was 4.71 min.
The value for `COC=C(C(=O)OC)c1ccccc1Oc1cc(Oc2ccccc2C#N)ncn1` was 9.02 min; that for `CNCCCC12CCC(c3ccccc31)c1ccccc12` was 8.08 min; that for `CSc1ccc2c(c1)N(CCC1CCCCN1C)c1ccccc1S2` (stereo not drawn) was 9.34 min.
The value for `CC(O)CCn1cc(C(=O)c2cccc3ccccc23)c2ccccc21` (stereo not drawn) was 9.91 min; that for `CC1CCC2N(C1)CC1C3CC4C(CC(O)C5CC(O)CCC54C)C3CCC1C2(C)O` (stereo not drawn) was 6.44 min.
For `C=CCN(CC=C)CCc1c[nH]c2ccc(OC)cc12`, the LC retention time amounted to 4.89 min.
As to `CC(C)(C)NCC(O)c1ccc(O)c(CO)c1` (stereo not drawn), the LC retention time is 3.23 min.
For `COc1cc2c(cc1OC)C13CCN4CC5=CCOC6CC(=O)N2C1C6C5CC43` (stereo not drawn), the LC retention time stood at 4.21 min.
In the case of `COc1ccc(CC(C)N)cc1` (stereo not drawn), the LC retention time was 4.34 min.
In the case of `CCOP(=S)(Oc1ccc([N+](=O)[O-])cc1)c1ccccc1` (stereo not drawn), the LC retention time was found to be 11.7 min.
Consider `CNC(=O)Oc1cc(C)cc(C(C)C)c1`, for which the LC retention time worked out at 9.51 min.
The value for `CCOc1ccccc1C(N)=O` was 5.68 min; that for `CCCCOC(=O)c1ccccc1C(=O)OCCCC` was 12 min; that for `CCCCC(=O)N(Cc1ccc(-c2ccccc2-c2nn[nH]n2)cc1)C(C(=O)O)C(C)C` (stereo not drawn) was 9.21 min.
The value for `CC1(C)OCC2OC3(C(=O)O)OC(C)(C)OC3C2O1` (stereo not drawn) was 4.76 min; that for `COc1ccc(C(=O)c2cn(CCCCCO)c3ccccc23)cc1` was 9.18 min.
Take `Cn1c(=O)c2c(ncn2CC(O)CO)n(C)c1=O` (stereo not drawn): the LC retention time is 3.76 min.
As to `NCC(O)COc1ccccc1C(=O)CCc1ccccc1.O=C(O)C(=O)O` (stereo not drawn), the LC retention time was found to be 7.09 min.
The value for `Cc1cc(C2CC2)nc(Nc2ccccc2)n1` was 11 min.
Turning to `CNC(=O)ON=CC(C)(C)S(C)(=O)=O`, the LC retention time came out at 3.75 min.
The value for `C=C1CC(=CC)C(=O)OC2CC[N+]3([O-])CC=C(COC(=O)C1(C)O)C23` (stereo not drawn) was 4.5 min.
As to `Cc1cc(C)nc(NS(=O)(=O)c2ccc(N)cc2)n1`, the LC retention time was 4.31 min.
As for `CNCCC=C1c2ccccc2COc2ccccc21`, the LC retention time was found to be 7.03 min.
The value for `CCN(CC)CCOC(=O)C(O)(c1ccccc1)c1ccccc1` was 6.08 min; that for `CCc1ccc(C(=O)NN(C(=O)c2cc(C)cc(C)c2)C(C)(C)C)cc1` was 10.4 min; that for `O=C(NC1CCN(CCc2c[nH]c3ccccc23)CC1)c1ccccc1` was 5.37 min.
As to `NCC1CCC(C(=O)O)CC1` (stereo not drawn), the LC retention time amounted to 1.79 min.
In the case of `O=C1NC(=O)C(c2ccccc2)(c2ccccc2)N1`, the LC retention time stood at 7.08 min.
Turning to `COc1cc(SC(C)C)c(OC)cc1CCN`, the LC retention time worked out at 6.69 min.
On to `CCOc1cc(NC(C)=O)ccc1C(=O)OC`, for which the LC retention time stood at 6.63 min.
The value for `COc1ccc(C(O)(c2cncnc2)C2CC2)cc1` (stereo not drawn) was 7.15 min; that for `CCCCCn1cc(C(=O)Nc2cccc3ccccc23)c2ccccc21` was 11.7 min.
For the compound `OC(c1ccccc1)(c1ccccc1)C1CCCCN1` (stereo not drawn), the LC retention time turned out to be 5.78 min.
Take `CC(C)(C)c1ccc(C(O)CCCN2CCC(C(O)(c3ccccc3)c3ccccc3)CC2)cc1` (stereo not drawn): the LC retention time came out at 9.69 min.
The value for `CCOc1ccc2c(c1)C(C)=CC(C)(C)N2` was 10.1 min; that for `CN(C)CCC(c1ccccc1)c1ccccn1` (stereo not drawn) was 4.98 min.
`Nc1nc(N)nc(NC2CC2)n1`: the LC retention time was 2.78 min.
For the compound `COP(=S)(OC)Oc1ccc(S(N)(=O)=O)cc1`, the LC retention time was determined as 6.19 min.
With `O=C1NC(=O)C2CC=CCC12` (stereo not drawn), the LC retention time amounted to 4.37 min.
As to `CCOP(=S)(OCC)Oc1ccc([N+](=O)[O-])cc1`, the LC retention time came to 10.7 min.
For `CCCC(C)(COC(N)=O)COC(=O)NC(C)C` (stereo not drawn), the LC retention time came out at 7.99 min.
Consider `CCCCNc1ccc(C(=O)OCCN(C)C)cc1`, for which the LC retention time was 6.43 min.
For `CN(C)C(=N)N=C(N)N`, the LC retention time turned out to be 1.39 min.
The value for `CNCC1CCCCC1(O)c1cccc(OC)c1` (stereo not drawn) was 5.3 min; that for `CNC(=O)Oc1cc(C)c(SC)c(C)c1` was 9.34 min.
On to `CCCCCCCCc1ccc(OCCOCCO)cc1`, for which the LC retention time stood at 14.1 min.
With `COP(=S)(OC)Oc1ccc(SC)c(C)c1`, the LC retention time amounted to 11 min.
The value for `CN1CCN(C(c2ccccc2)c2ccccc2)CC1` was 6.94 min.
Regarding `CCCCCn1nc(C(=O)Nc2cccc3ccccc23)c2ccccc21`, the LC retention time was found to be 13 min.
On to `COP(=S)(OC)SCN1C(=O)c2ccccc2C1=O`, for which the LC retention time was determined as 8.94 min.
Take `CC(=O)Nc1ccc(-c2ccc(C=NN3CC(=O)NC3=O)o2)cc1`: the LC retention time was determined as 5.67 min.
The value for `CN(C)c1nc(N(C)C)nc(N(C)C)n1` was 10.1 min; that for `Cn1nc2ccccc2n1` was 5.11 min; that for `CSC(C)=NOC(=O)N(C)SN(C)C(=O)ON=C(C)SC` was 7.64 min.
The value for `CC(C)NCC(O)COc1ccc(COCCOC(C)C)cc1` (stereo not drawn) was 5.91 min.

The record behind these values is the RepoRT retention time repository (doi:10.1016/j.jhazmat.2019.121712).
